# According to PubChem BioAssay AID2060512 (Molecular Pharmacology Branch, DTP, NCI, 2025):
# Test system: 186277-243-T-J2-PDC complex spheroid viability
# Assay: Anticancer human tumor 186277-243-T-J2-PDC patient-derived colon adenocarcinoma cell line growth inhibition [GQUAD]
# Conditions: for IC50: curve of first compound; for viability, T/C: stronger effect = lower value
# Procedure, shortened: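 Tumor cells were grown as complex spheroids with HUVEC endothelial cells and mesenchymal stem cells as stroma. G-quadruplex stabilizers were combined with targeted agents over half-log dilutions from near the clinical Cmax, or from 10 microM.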
# [1] = second compound 0.0316 µM, first compound 0.0316 µM
# [2] = second compound 0.0316 µM, first compound 0.1 µM
# [3] = second compound 0.0316 µM, first compound 0.316 µM
# [4] = second compound 0.0316 µM, first compound 1 µM
# [5] = second compound 0.0316 µM, first compound 3.16 µM
# [6] = second compound 0.0316 µM, first compound 10 µM
# [7] = second compound 0.1 µM, first compound 0.0316 µM
# [8] = second compound 0.1 µM, first compound 0.1 µM
# [9] = second compound 0.1 µM, first compound 0.316 µM
# [10] = second compound 0.1 µM, first compound 1 µM
# [11] = second compound 0.1 µM, first compound 3.16 µM
# [12] = second compound 0.1 µM, first compound 10 µM
# [13] = second compound 0.316 µM, first compound 0.0316 µM
# [14] = second compound 0.316 µM, first compound 0.1 µM
# [15] = second compound 0.316 µM, first compound 0.316 µM
# [16] = second compound 0.316 µM, first compound 1 µM
# [17] = second compound 0.316 µM, first compound 3.16 µM
# [18] = second compound 0.316 µM, first compound 10 µM
# [19] = second compound 1 µM, first compound 0.0316 µM
# [20] = second compound 1 µM, first compound 0.1 µM
# [21] = second compound 1 µM, first compound 0.316 µM
# [22] = second compound 1 µM, first compound 1 µM
# [23] = second compound 1 µM, first compound 3.16 µM
# [24] = second compound 1 µM, first compound 10 µM
# [25] = second compound 3.16 µM, first compound 0.0316 µM
# [26] = second compound 3.16 µM, first compound 0.1 µM
# [27] = second compound 3.16 µM, first compound 0.316 µM
# [28] = second compound 3.16 µM, first compound 1 µM
# [29] = second compound 3.16 µM, first compound 3.16 µM
# [30] = second compound 3.16 µM, first compound 10 µM
# [31] = second compound 10 µM, first compound 0.0316 µM
# [32] = second compound 10 µM, first compound 0.1 µM
# [33] = second compound 10 µM, first compound 0.316 µM
# [34] = second compound 10 µM, first compound 1 µM
# [35] = second compound 10 µM, first compound 3.16 µM
# [36] = second compound 10 µM, first compound 10 µM
# 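Note: spheroids exposed to drugs for 7 days.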
# 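Throughout, for viability, T/C: 100% = DMSO vehicle control viability.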
smiles,measurement,setting,value
O=C(NO)c1cnc(N2CCN(S(=O)(=O)c3ccc4ccccc4c3)CC2)nc1 + Cc1cnc(CNC(=O)c2c(=O)c3ccc(N4CCCN(C)CC4)nc3n3c2sc2ccccc23)cn1,IC50,second compound 0.0316 µM,148 nM
same,IC50,second compound 0.1 µM,102 nM
same,IC50,second compound 0.316 µM,61.9 nM
same,IC50,second compound 1 µM,< 31.6 nM
same,IC50,second compound 3.16 µM,< 31.6 nM
same,IC50,second compound 10 µM,< 31.6 nM
same,"viability, T/C",[1],96.1%
same,"viability, T/C",[2],71.1%
same,"viability, T/C",[3],9.06%
same,"viability, T/C",[4],0.26%
same,"viability, T/C",[5],0.12%
same,"viability, T/C",[6],0.12%
same,"viability, T/C",[7],66.5%
same,"viability, T/C",[8],50.9%
same,"viability, T/C",[9],9.09%
same,"viability, T/C",[10],0.28%
same,"viability, T/C",[11],0.09%
same,"viability, T/C",[12],0.1%
same,"viability, T/C",[13],64.5%
same,"viability, T/C",[14],39.7%
same,"viability, T/C",[15],8.31%
same,"viability, T/C",[16],0.44%
same,"viability, T/C",[17],0.08%
same,"viability, T/C",[18],0.1%
same,"viability, T/C",[19],40.2%
same,"viability, T/C",[20],34.2%
same,"viability, T/C",[21],8.56%
same,"viability, T/C",[22],0.11%
same,"viability, T/C",[23],0.08%
same,"viability, T/C",[24],0.1%
same,"viability, T/C",[25],33.3%
same,"viability, T/C",[26],24.1%
same,"viability, T/C",[27],0.15%
same,"viability, T/C",[28],0.1%
same,"viability, T/C",[29],0.1%
same,"viability, T/C",[30],0.12%
same,"viability, T/C",[31],34.2%
same,"viability, T/C",[32],19.8%
same,"viability, T/C",[33],0.24%
same,"viability, T/C",[34],0.14%
same,"viability, T/C",[35],0.16%
same,"viability, T/C",[36],0.18%
CC[C@@]1(O)C(=O)OCc2c1cc1n(c2=O)Cc2cc3c(CN(C)C)c(O)ccc3nc2-1 + Cc1cnc(CNC(=O)c2c(=O)c3ccc(N4CCCN(C)CC4)nc3n3c2sc2ccccc23)cn1,IC50,second compound 0.0316 µM,> 316 nM
same,IC50,second compound 0.1 µM,263 nM
same,IC50,second compound 0.316 µM,176 nM
same,IC50,second compound 1 µM,< 0.999 nM
same,IC50,second compound 3.16 µM,< 0.999 nM
same,IC50,second compound 10 µM,< 0.999 nM
same,"viability, T/C","second compound 0.0316 µM, first compound 0.000999 µM",95.2%
same,"viability, T/C","second compound 0.0316 µM, first compound 0.00316 µM",85.6%
same,"viability, T/C","second compound 0.0316 µM, first compound 0.00999 µM",82.4%
same,"viability, T/C",[1],77.1%
same,"viability, T/C","second compound 0.0316 µM, first compound 0.0999 µM",64.4%
same,"viability, T/C",[3],52.8%
same,"viability, T/C","second compound 0.1 µM, first compound 0.000999 µM",79.6%
same,"viability, T/C","second compound 0.1 µM, first compound 0.00316 µM",74.4%
same,"viability, T/C","second compound 0.1 µM, first compound 0.00999 µM",87.5%
same,"viability, T/C",[7],60.9%
same,"viability, T/C","second compound 0.1 µM, first compound 0.0999 µM",66.6%
same,"viability, T/C",[9],47.1%
same,"viability, T/C","second compound 0.316 µM, first compound 0.000999 µM",68.1%
same,"viability, T/C","second compound 0.316 µM, first compound 0.00316 µM",56.5%
same,"viability, T/C","second compound 0.316 µM, first compound 0.00999 µM",71.3%
same,"viability, T/C",[13],70.7%
same,"viability, T/C","second compound 0.316 µM, first compound 0.0999 µM",62%
same,"viability, T/C",[15],36.6%
same,"viability, T/C","second compound 1 µM, first compound 0.000999 µM",47.9%
same,"viability, T/C","second compound 1 µM, first compound 0.00316 µM",38.1%
same,"viability, T/C","second compound 1 µM, first compound 0.00999 µM",49.7%
same,"viability, T/C",[19],50.1%
same,"viability, T/C","second compound 1 µM, first compound 0.0999 µM",52.2%
same,"viability, T/C",[21],38.2%
same,"viability, T/C","second compound 3.16 µM, first compound 0.000999 µM",49.6%
same,"viability, T/C","second compound 3.16 µM, first compound 0.00316 µM",44.2%
same,"viability, T/C","second compound 3.16 µM, first compound 0.00999 µM",46.7%
same,"viability, T/C",[25],40.7%
same,"viability, T/C","second compound 3.16 µM, first compound 0.0999 µM",46.2%
same,"viability, T/C",[27],27.7%
same,"viability, T/C","second compound 10 µM, first compound 0.000999 µM",39.6%
same,"viability, T/C","second compound 10 µM, first compound 0.00316 µM",37.4%
same,"viability, T/C","second compound 10 µM, first compound 0.00999 µM",47.1%
same,"viability, T/C",[31],41.8%
same,"viability, T/C","second compound 10 µM, first compound 0.0999 µM",41.6%
same,"viability, T/C",[33],36.4%
COc1ncnc(C2CC2)c1-c1ncc2cnn(Cc3ccc(-c4nc(C(F)(F)F)cn4C(C)C)cc3)c2n1 + CN(C)c1ccc(Nc2c3ccc(NC(=O)CCN4CCCC4)cc3nc3cc(NC(=O)CCN4CCCC4)ccc23)cc1,IC50,second compound 0.0316 µM,> 10000 nM
same,IC50,second compound 0.1 µM,> 10000 nM
same,IC50,second compound 0.316 µM,> 10000 nM
same,IC50,second compound 1 µM,> 10000 nM
same,IC50,second compound 3.16 µM,> 10000 nM
same,IC50,second compound 10 µM,> 10000 nM
same,"viability, T/C",[1],106%
same,"viability, T/C",[2],102%
same,"viability, T/C",[3],101%
same,"viability, T/C",[4],101%
same,"viability, T/C",[5],106%
same,"viability, T/C",[6],98.1%
same,"viability, T/C",[7],102%
same,"viability, T/C",[8],93.2%
same,"viability, T/C",[9],105%
same,"viability, T/C",[10],94.8%
same,"viability, T/C",[11],99%
same,"viability, T/C",[12],98.2%
same,"viability, T/C",[13],92.8%
same,"viability, T/C",[14],110%
same,"viability, T/C",[15],105%
same,"viability, T/C",[16],98.7%
same,"viability, T/C",[17],103%
same,"viability, T/C",[18],85.6%
same,"viability, T/C",[19],100%
same,"viability, T/C",[20],114%
same,"viability, T/C",[21],101%
same,"viability, T/C",[22],107%
same,"viability, T/C",[23],112%
same,"viability, T/C",[24],84.3%
same,"viability, T/C",[25],99.1%
same,"viability, T/C",[26],98%
same,"viability, T/C",[27],113%
same,"viability, T/C",[28],108%
same,"viability, T/C",[29],118%
same,"viability, T/C",[30],95%
same,"viability, T/C",[31],111%
same,"viability, T/C",[32],116%
same,"viability, T/C",[33],106%
same,"viability, T/C",[34],99.2%
same,"viability, T/C",[35],105%
same,"viability, T/C",[36],53.8%
O=c1[nH]cc(F)c(=O)[nH]1 + Cc1[nH]c2ccc(F)cc2c1-c1nc2c3cccnc3c3ncccc3c2[nH]1,IC50,second compound 0.0316 µM,> 10000 nM
same,IC50,second compound 0.1 µM,> 10000 nM
same,IC50,second compound 0.316 µM,8530 nM
same,IC50,second compound 1 µM,> 10000 nM
same,IC50,second compound 3.16 µM,7710 nM
same,IC50,second compound 10 µM,6670 nM
same,"viability, T/C",[1],107%
same,"viability, T/C",[2],99.2%
same,"viability, T/C",[3],110%
same,"viability, T/C",[4],106%
same,"viability, T/C",[5],67.7%
same,"viability, T/C",[6],51.4%
same,"viability, T/C",[7],94.7%
same,"viability, T/C",[8],86.5%
same,"viability, T/C",[9],110%
same,"viability, T/C",[10],109%
same,"viability, T/C",[11],80.9%
same,"viability, T/C",[12],51.7%
same,"viability, T/C",[13],84.9%
same,"viability, T/C",[14],101%
same,"viability, T/C",[15],106%
same,"viability, T/C",[16],124%
same,"viability, T/C",[17],80.7%
same,"viability, T/C",[18],45.1%
same,"viability, T/C",[19],98.2%
same,"viability, T/C",[20],93.7%
same,"viability, T/C",[21],93.5%
same,"viability, T/C",[22],87.7%
same,"viability, T/C",[23],80.7%
same,"viability, T/C",[24],51.4%
same,"viability, T/C",[25],97.9%
same,"viability, T/C",[26],94%
same,"viability, T/C",[27],110%
same,"viability, T/C",[28],99.4%
same,"viability, T/C",[29],68.6%
same,"viability, T/C",[30],44.6%
same,"viability, T/C",[31],106%
same,"viability, T/C",[32],108%
same,"viability, T/C",[33],110%
same,"viability, T/C",[34],116%
same,"viability, T/C",[35],69.3%
same,"viability, T/C",[36],39.5%
